Laboratory results published in PubChem BioAssay (NCI).
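All cell lines were grown in 96-well plates and treated with compound for 48 hours. The concentration for full growth arrest is given as TGI.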

Columns and labels:
Assay in all cases: DTP human tumour cell line panel, 48 h
[1] = test system: A498 renal
[2] = test system: BT-549 breast
[3] = test system: CAKI-1 renal
[4] = test system: HCT-116 colon
[5] = test system: HOP-92 NSCLC
[6] = test system: HS 578T breast
[7] = test system: KM12 colon
[8] = test system: LOX IMVI melanoma
[9] = test system: MDA-MB-231 breast
[10] = test system: NCI-H460 lung
[11] = test system: RXF 393 renal
[12] = test system: SK-MEL-5 melanoma
[13] = test system: SNB-19 CNS
[14] = test system: SNB-75 CNS
[15] = test system: SR leukemia
[16] = test system: U251 CNS
[17] = test system: UACC-257 melanoma
[18] = test system: UO-31 renal

SMILES | TGI [1] | TGI [2] | TGI [3] | TGI [4] | TGI [5] | TGI [6] | TGI [7] | TGI [8] | TGI [9] | TGI [10] | TGI [11] | TGI [12] | TGI [13] | TGI [14] | TGI [15] | TGI [16] | TGI [17] | TGI [18]
CCO/N=C(/CC)c1ccc(Br)s1 | > 100 µM | > 100 µM | > 100 µM | > 100 µM | > 100 µM | > 100 µM | > 100 µM | > 100 µM | > 100 µM | > 100 µM | > 100 µM | > 100 µM | > 100 µM | > 100 µM | > 100 µM | > 100 µM | > 100 µM | > 100 µM
O=C(N1CCN(c2ccccc2)CC1)N(C(=O)C1(c2ccc(Cl)cc2)CCCC1)S(=O)(=O)c1ccccc1 | 0.429 µM | 80.2 µM | 71.4 µM | 52.7 µM | 74.4 µM | 88.2 µM | > 100 µM | 37.9 µM | 74.5 µM | > 100 µM | > 100 µM | 40.7 µM | 72.2 µM | > 100 µM | > 100 µM | 62.4 µM | 88.1 µM | 92.9 µM
Cc1cn(C2CC(O)C(Cn3nncc3Cn3ccc(=O)[nH]c3=O)O2)c(=O)[nH]c1=O (stereo not given) | > 100 µM | > 100 µM | > 100 µM | > 100 µM | > 100 µM | > 100 µM | > 100 µM | > 100 µM | > 100 µM |  | > 100 µM | > 100 µM | > 100 µM | > 100 µM | > 100 µM | > 100 µM | > 100 µM | > 100 µM
CCCNC(=O)c1cc(NC(=O)c2cc(NC(=O)CCS(=O)(=O)OC)cn2C)cn1C | > 100 µM | 8.54 µM | > 75.3 µM | > 69.8 µM | 47 µM | > 100 µM | > 61.5 µM | 43.6 µM | > 70.8 µM | > 100 µM | 29 µM | 44.1 µM | 4.82 µM | 48.4 µM | > 100 µM | > 100 µM | 53.5 µM | > 100 µM
NNC(=O)CSc1nnc(CCCCCCCCc2nnc(SCC(=O)NN)o2)o1 | > 100 µM | > 100 µM | > 100 µM | > 100 µM | > 100 µM | > 100 µM | > 100 µM | > 100 µM | > 100 µM | > 100 µM | > 100 µM | > 100 µM | > 100 µM | > 100 µM | > 100 µM | > 100 µM | > 100 µM | > 100 µM
N#Cc1c(Nc2ccccc2)[n+]([O-])c2ccc(Cl)cc2[n+]1[O-] | > 61.3 µM | 14.9 µM | > 100 µM | 33.1 µM | 4.22 µM | > 72.8 µM | > 100 µM | 12.7 µM | > 67 µM |  | > 100 µM | 4.84 µM | > 77.4 µM | > 96.6 µM | > 27.7 µM | 15.6 µM | > 25.3 µM | > 29.4 µM
Cc1c(C=C(C#N)C#N)c(=O)n(C)c(=O)n1C | > 100 µM | > 100 µM | > 100 µM | > 100 µM | > 100 µM | > 100 µM | > 100 µM | > 100 µM | > 100 µM | > 100 µM | > 100 µM | > 100 µM | > 100 µM | > 100 µM | > 100 µM | > 100 µM | > 100 µM | > 100 µM
CC(=O)c1cccc(NC(=O)/C(=N\NC(=S)NN)C2C(=O)Nc3ccccc3S2=O)c1 (stereo not given) | > 100 µM | > 100 µM | > 100 µM | > 100 µM | > 100 µM | > 100 µM | > 100 µM | > 100 µM | > 100 µM |  | > 100 µM | > 100 µM | > 100 µM | > 100 µM | > 100 µM | > 100 µM | > 100 µM | > 100 µM
Cc1ccc2nnc(NS(=O)(=O)c3cc(C)c(Cl)cc3S)n2n1 | > 100 µM | > 100 µM | > 100 µM | > 100 µM | > 100 µM | > 100 µM | > 100 µM | > 100 µM | > 100 µM | > 100 µM | > 100 µM | > 100 µM | > 100 µM | > 100 µM | > 100 µM | > 100 µM | > 100 µM | > 100 µM
COc1cc(C2S/C(=C/c3ccccc3)C(=O)N2c2ccccn2)cc(OC)c1OC (stereo not given) | 33.4 µM | 39 µM | 52.3 µM | 20.6 µM | 33.6 µM | > 68 µM | 29.4 µM | 26.9 µM | > 84.8 µM |  | 22.8 µM | 56.6 µM | 46.5 µM | 39.7 µM | > 100 µM | 28.1 µM | > 100 µM | 28.8 µM
Nc1c(O)c(C(=O)O)cc2ccccc12 | > 100 µM | 60.3 µM | 53.8 µM | 32.2 µM | > 100 µM | > 100 µM | > 100 µM | 22.5 µM | 28.8 µM | > 100 µM | > 100 µM | 27.9 µM | > 100 µM | 53.5 µM | > 100 µM | > 100 µM | 38.4 µM | > 100 µM
COc1cc2c3c4c1OCc1c5c(cc(c1-4)CC3[N+](C)(C)CC2)OCO5 (stereo not given) | > 100 µM | 12.3 µM | > 100 µM | > 100 µM | > 100 µM | 31.7 µM | > 100 µM | > 100 µM | > 100 µM | > 100 µM | > 100 µM | > 100 µM | 54 µM | > 100 µM | > 100 µM | > 64.1 µM | > 100 µM | > 100 µM
CCOC(=O)/C=C1\C[C@H](NC(=O)OCc2ccccc2)C(=O)N1CC(=O)OCC | > 100 µM | > 100 µM | > 100 µM | > 100 µM | > 100 µM | > 100 µM | > 100 µM |  | > 100 µM | > 100 µM | > 100 µM | > 100 µM | > 100 µM | > 100 µM | > 100 µM | > 100 µM | > 100 µM | > 100 µM
NC(=O)N/N=C/c1ccccc1O | > 100 µM | > 100 µM | > 100 µM | > 100 µM | > 100 µM | > 100 µM | > 100 µM | > 100 µM | > 100 µM | > 100 µM | > 100 µM | > 100 µM | > 100 µM | > 100 µM | > 100 µM | > 100 µM | > 100 µM | > 100 µM
S=c1sscc1N1CCSc2ssc(=S)c21 | 77.4 µM | > 100 µM | > 100 µM | > 100 µM | 31 µM | > 100 µM | > 100 µM | > 100 µM | > 100 µM | > 100 µM | > 100 µM | > 100 µM | 63.5 µM | 43.5 µM | > 100 µM | 38.2 µM | > 100 µM | > 100 µM
COc1ccccc1NC1=NCC(C)S1 (stereo not given) | > 100 µM | > 100 µM | > 100 µM | > 100 µM | > 100 µM | > 100 µM | > 100 µM | > 100 µM | > 100 µM | > 100 µM | > 100 µM | > 100 µM | > 100 µM | > 100 µM | > 100 µM | > 100 µM | > 100 µM | > 100 µM
N#C/C=C\c1ccc(-c2cc(C(F)(F)F)cc(C(F)(F)F)c2)o1 | 61.3 µM | 76.8 µM | > 100 µM | > 100 µM | 50 µM | 54.8 µM | > 100 µM | > 100 µM | > 100 µM | > 100 µM | > 100 µM | 43.1 µM | > 100 µM | 39.8 µM | 40.7 µM | 27.4 µM | > 100 µM | > 100 µM
COc1cc(OC)cc(Oc2nc3c(N)cc(C(F)(F)F)cc3nc2-c2ccccc2)c1 | > 100 µM | > 100 µM | > 100 µM | > 100 µM | > 100 µM | > 100 µM | 50.3 µM | 45.9 µM | 98.7 µM | > 100 µM | > 100 µM | > 100 µM | > 100 µM | > 100 µM | 75.7 µM | > 100 µM | > 100 µM | > 100 µM
CC(=O)NC1=CC(=O)C=C(Cl)C1=O | > 100 µM | > 100 µM | > 100 µM | > 100 µM | > 100 µM | > 100 µM | > 100 µM |  | > 100 µM | > 100 µM | > 100 µM | > 100 µM | > 100 µM | > 100 µM | 48.3 µM | > 100 µM | > 100 µM | > 100 µM
Cc1cc(C)nc(NS(=O)(=O)c2ccc(NC(=O)c3ccc4nc5ccccc5c(Nc5ccc(S(=O)(=O)Nc6nc(C)cc(C)n6)cc5)c4c3)cc2)n1 | > 100 µM | 69.7 µM | > 100 µM | > 100 µM | > 100 µM | > 100 µM | > 100 µM | 43.4 µM | 53.9 µM | > 100 µM | > 100 µM | > 100 µM | > 100 µM | > 100 µM | > 100 µM | > 100 µM | > 100 µM | > 100 µM
CC(=O)Nc1ccc2c3c(cc(O)c2c1)N(C(=O)CCCCCC(=O)Nc1ccc2c4c(cc(O)c2c1)N(C(=O)OC(C)(C)C)CC4CCl)CC3CCl (stereo not given) | 5.31 µM | 10.9 µM | > 100 µM | 14.4 µM | 23.7 µM | > 26.9 µM | 13.6 µM | 18.2 µM | 18.5 µM | > 21.2 µM | 2.69 µM | 2.98 µM | > 35 µM | 5.22 µM | 4.3 µM | 6.75 µM | > 28.6 µM | > 100 µM
CC1(C)N=C(N)N=C(N)N1CCCCc1ccccc1 | > 100 µM | > 100 µM | > 100 µM | > 100 µM | > 100 µM | > 81.9 µM | > 100 µM | > 100 µM | > 100 µM | > 100 µM | > 100 µM | 12.5 µM | > 100 µM | 97.6 µM | > 100 µM | > 100 µM | > 75.9 µM | > 100 µM
CCCCn1c2c(n(CCCC)c1=[Se])-c1c(n(CCCC)c(=[Se])n1CCCC)S[Se][Se]S2 | > 100 µM | > 92.5 µM | 17.7 µM | > 56.2 µM | 5.93 µM | 80.5 µM | > 59.3 µM | 30.1 µM | 32.2 µM | 29 µM | > 71.4 µM | 34.6 µM | > 65.2 µM | 44.7 µM | > 100 µM | 32.2 µM | > 100 µM | > 44.2 µM
O[C@H]1[C@@H]2OC[C@@H](O)[C@H](OCc3ccccc3)[C@@](COCc3ccccc3)(O2)[C@@H]1OCc1ccccc1 | 31.4 µM | 32.2 µM | 0.0898 µM | 47.5 µM | 26.3 µM | 40.7 µM | 35.6 µM | 32.7 µM | 30.9 µM | 53.8 µM | 39.8 µM |  | 30 µM | 18.7 µM | > 100 µM | 30.4 µM | 28.7 µM | 30.6 µM
